Columns and labels:
ovulation in female rats [1] = experiment: Anti-ovulatory activity (AOA) in vivo assay in rats; details: dose 0.5 μg per rat
ovulation in female rats [2] = experiment: as above; parameters: species or system rat; details: for AO activity (AOA), in words: rat, in vivo
Summary of the method: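 Female rats dosed on proestrus day with test peptide dissolved in 0.1% DMSO. Read-out is the number of rats that ovulate; antagonist activity is defined as blocking ovulation in at least 50% of treated rats at a dose of 5 μg per rat.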

rat mast cells = experiment: Histamine release assay, rat mast cells
Description: The term “histamine-releasing activity”, as used herein, refers to the tendency of a compound to release histamine when administered to a subject. The histamine-releasing activity of a compound can be measured with an in vitro assay (described in more detail, infra). […] Histamine-releasing activity was assayed by the method described in U.S. Pat. No. 4,851,385 to Roeske. Briefly, a suspension of rat mast cells was added to increasing concentrations of an LHRH antagonist peptide and incubated for 15 minutes at 37° C. The buffer contained 25 mM PIPES, pH 7.4, NaCl (119 mM), KCl (5 mM), NaOH (40 mM) glucose (5.6 mM), CaCl2 (1 mM) and 0.1% bovine serum albumin.

[3] = cited from earlier work
plasma testosterone [4] = experiment: Suppression of plasma testosterone, continuous subcutaneous infusion via osmotic pump (FIG. 2, FIG. 3); format: in vivo, rat
Description: FIG. 2 is a graph depicting plasma testosterone levels (in ng/ml) in adult male rats subcutaneously administered the LHRH antagonist #3827 via an osmotic pump. Doses were either 300 μg/kg/day for two weeks, followed by 15 μg/kg/day for an additional two weeks or 1000 μg/kg/day for two weeks, followed by 5, 15 or 50 μg/kg/day for an additional two weeks.
FIG. 3 is a graph depicting the plasma testosterone levels (in ng/ml) in adult male rats subcutaneously administered the LHRH antagonist #3827 via an osmotic pump. Doses were either 30 μg/kg/day for two weeks, followed by 5 μg/kg/day for an additional two weeks, 100 μg/kg/day for two weeks, followed by 5 μg/kg/day for an additional two weeks. or 300 μg/kg/day for two weeks, followed by 0 or 5 μg/kg/day for an additional two weeks.
In another experiment, continuous subcutaneous infusion of the LHRH antagonist # 3827 was achieved through use of an osmotic pump. Doses of 300 or 1000 μg/kg/day (“High Dose”) were administered subcutaneously for two weeks via Alzet osmotic minipumps in each of five male Sprague-Dawley rats. The animals that received 1000 μg/kg/day were then maintained for an additional two weeks with 5, 15 or 50 μg/kg/day (“Low Dose”) before the pumps were removed completely. The results are shown graphically in FIG. 2.

plasma testosterone [5] = experiment: Suppression of plasma testosterone, single subcutaneous injection; format: in vivo, rat; details: adult male rats
Description: The ability of an LHRH antagonist of the invention to suppress plasma testosterone levels was examined in adult male rats. In one experiment, a single injection of LHRH antagonist was administered subcutaneously at doses of 300 or 1000 μg/kg. […] Testosterone levels returned to normal by 24 hours after the 300 μg/kg dose, but not until 72 hours after the 1000 μg/kg dose.

plasma testosterone [6] = experiment: Suppression of plasma testosterone, eight doses every three hours (FIG. 1); format: in vivo, rat; details: adult male rats
Description: FIG. 1 is a graph depicting plasma testosterone levels (in ng/ml) in adult male rats administered eight subcutaneous injections of the LHRH antagonist #3827, one injection every three hours, at doses of 1, 10 or 100 μg/kg.
In another experiment, the LHRH antagonist #3827 was administered in eight […] doses of 1, 10 or 100 μg/kg, each every three hours, corresponding respectively to 8, 80 or 800 μg/kg/day. The results are shown graphically in FIG. 1.

[7] = follow up study, FIG. 3, osmotic pump s.c.
[8] = rat mast cells, 15 minutes at 37° C.
[9] = footnote a: run with Nal arg reference 0.11
[10] = footnote b: run with Nal arg reference 0.14

## Ac-D-Nal^1, 4-Cl-D-Phe^2, D-Pal^3, D-Arg^6, Met(S^+Me)^8, D-Ala^10-LHRH.2TFA [Compound 3983]
Ovulation in female rats [1]
  AO activity (AOA): rats which ovulate / rats treated: 8/8@0.5
Ovulation in female rats [2]; dose 1 μg per rat
  AO activity (AOA): rats which ovulate / rats treated: 0/8@1.00
Ovulation in female rats [2]
  AO activity (AOA), in words: high AOA
Rat mast cells; footnote g: run with Nal arg reference 0.1
  Histamine release ED50: 5.35 µg/mL
Rat mast cells; footnote h: run with Nal arg reference 0.02
  Histamine release ED50: 1.32 µg/mL

## Oc1ccc2ccccc2c1 [β-naphthol]
[3]
  measured log P (octanol/water): 2.84

## Ac-D-Nal^1, 4-Cl-D-Phe^2, D-Pal^3, N-Me-Tyr^5, D-Asn^6, Lys(iPr)^8, D-Ala^10-LHRH.TFA [Compound 3827]
Plasma testosterone [4]; after High Dose two weeks, Low Dose pumps 5, 15 or 50 μg/kg/day, as low as 5 μg/kg/day
  castration during Low Dose maintenance: remained fully castrated
Plasma testosterone [4]; by maintenance dose
  recovery in plasma testosterone following completion of treatment: dose dependent recovery
Plasma testosterone [4]; [7]
  dose achieving complete suppression of testosterone to castrate levels (as low as): ≤ 30 µg/kg/day
  dose maintaining castrate levels (as low as): ≤ 5 µg/kg/day
Plasma testosterone [4]; male Sprague-Dawley rats, osmotic pump s.c., initial dose 300 or 1000 μg/kg/day
  time to castrate levels of testosterone: ≤ 7 days
Plasma testosterone [4]; osmotic pump s.c.
  castration response during chronic treatment: no apparent “castration response”
Plasma testosterone [4]; rat, in vivo
  recovery of testosterone levels following pump removal: complete within two weeks
Ovulation in female rats [2]; dose 1 μg per rat
  AO activity (AOA): rats which ovulate / rats treated: 4/8@1.0
Ovulation in female rats [2]
  AO activity (AOA), in words: moderate AO activity
Plasma testosterone [5]; single s.c. 300 μg/kg
  time until testosterone levels returned to normal: ≤ 24 h
Plasma testosterone [5]; single s.c. 1000 μg/kg
  time until testosterone levels returned to normal: 72 h
Plasma testosterone [5]; single s.c. injection 300 or 1000 μg/kg, by 6 hours post-administration
  plasma testosterone: nearly undetectable levels
Plasma testosterone [6]; eight doses of 1 μg/kg, every three hours (8 μg/kg/day)
  plasma testosterone: significant decrease
Plasma testosterone [6]; eight doses of 10 μg/kg, every three hours (80 μg/kg/day)
  plasma testosterone: Castrate levels

## Ac-D-Nal^1, 4-Cl-D-Phe^2, D-Pal^3, D-Pal(Bzl)^6, Lys(iPr)^8, D-Ala^10-LHRH.TFA [Compound 3429]
Ovulation in female rats [1]
  AO activity (AOA): rats which ovulate / rats treated: 4/8@0.5 μg
Ovulation in female rats [2]; dose 1 μg per rat
  AO activity (AOA): rats which ovulate / rats treated: 0/8@1 μg
Rat mast cells; [8]
  Histamine release ED50: 6.0 µg/mL

## Ac-D-Nal^1, 4-Cl-D-Phe^2, D-Pal^3, D-Lys(Glc)^6-Lys(iPr)^8, D-Ala^10-LHRH.TFA [Compound 3423A]
Ovulation in female rats [1]
  AO activity (AOA): rats which ovulate / rats treated: 7/10@0.5 μg
Ovulation in female rats [2]; dose 1 μg per rat
  AO activity (AOA): rats which ovulate / rats treated: 2/10@1 μg
Ovulation in female rats [2]; dose 2 μg per rat
  AO activity (AOA): rats which ovulate / rats treated: 0/10@2 μg
Rat mast cells; [8]
  Histamine release ED50: 52 µg/mL

## c1ccc2ccccc2c1 [naphthalene]
[3]
  measured log P (octanol/water): 3.45

## Ac-D-Nal^1, 4-Cl-D-Phe^2, D-Pal^3, D-Arg^6, Orn(COCH2S^+Me2)^8, D-Ala^10, LHRH.2TFA [Compound 3985]
Ovulation in female rats [1]
  AO activity (AOA): rats which ovulate / rats treated: 8/8@0.5
Ovulation in female rats [2]; dose 1 μg per rat
  AO activity (AOA): rats which ovulate / rats treated: 0/8@1.00
Rat mast cells; [9]
  Histamine release ED50: 4.4 µg/mL
Rat mast cells; [10]
  Histamine release ED50: 3.86 µg/mL

## Ac-D-Nal^1, 4-Cl-D-Phe^2, D-Pal^3, D-Met(S^+CH3)^6, D-Ala^10-LHRH.2TFA [Compound 3967]
Ovulation in female rats [1]
  AO activity (AOA): rats which ovulate / rats treated: 1/8@0.5
Ovulation in female rats [2]; dose 0.25 μg per rat
  AO activity (AOA): rats which ovulate / rats treated: 7/8@0.25
Rat mast cells; footnote e: run with Nal arg reference 0.1
  Histamine release ED50: 0.38 µg/mL
Rat mast cells; footnote f: run with Nal arg reference 0.02
  Histamine release ED50: 0.15 µg/mL

## Ac-D-Nal^1, 4-Cl-D-Phe^2, D-Pal^3, 4-Cl-Phe^5, D-Pal(iPr)^6, Lys(iPr)^8, D-Ala^10-LHRH.2TFA [Compound 3851]
Ovulation in female rats [1]
  AO activity (AOA): rats which ovulate / rats treated: 6/8@0.5
Ovulation in female rats [2]; dose 1 μg per rat
  AO activity (AOA): rats which ovulate / rats treated: 0/8@1.0
Ovulation in female rats [2]
  AO activity (AOA), in words: unexpectedly active
Rat mast cells; [9]
  Histamine release ED50: 4.1 µg/mL
Rat mast cells; [10]
  Histamine release ED50: 5.4 µg/mL

## Ac-D-Nal^1, 4-Cl-D-Phe^2, D-Pal^3, D-Lys(OTac)^6, Lys(iPr)^8, D-Ala^10-LHRH.TFA [Compound 3508]
Ovulation in female rats [1]
  AO activity (AOA): rats which ovulate / rats treated: 6/8@0.5 μg
Ovulation in female rats [2]; dose 1 μg per rat
  AO activity (AOA): rats which ovulate / rats treated: 0/8@1 μg

— patent publication US7071165B2, “LHRH antagonist peptides” (Indiana University Research and Technology Corporation, priority 1995, dated 2006)
